For the assay, the system named is RUP40 transcript in neonatal rat ventricular myocytes (NRVMs). Nature of the assay: RT-PCR of RUP40 transcript in neonatal rat ventricular myocytes. The conditions noted are these: 24 hours following addition to media, FIG. 4. It counts as cell-based. The method, then: Neonatal rat ventricular myocytes (NRVMs) were isolated and cultured as described previously [Adams, J W et al., J Biol Chem (1996) 271:1179-86]. Briefly, hearts were obtained from 1- to 2-day old Sprague-Dawley rat pups and digested with collagenase, and myocytes were purified by passage through a Percoll gradient. Cells were plated onto tissue culture dishes precoated with 1% gelatin and maintained overnight in 4:1 DMEM/medium-199 supplemented with 10% horse serum, 5% fetal calf serum, and antibiotics (100 units/ml penicillin and 100 μg/ml streptomycin. After 18 hours in plating medium, myocytes were washed with maintenance medium (DMEM/medium 199 plus antibiotics) to remove dead cells and debris and refreshed with maintenance medium for the duration of the experiment.
Total RNA isolated from NRVMs and fibroblasts as described above was used as a template for generation of reverse transcribed DNA (RT-DNA) using the RT for PCR kit (Becton Dickinson, Franldin, N.J.) according to manufacturer's instructions. RUP40 expression was detected in RT-DNA samples by PCR. PCR conditions were: 96° C. or 2 min; 30 cycles of 96° C. for 30 sec, 55° C. for 30 sec, 72° C. for 2 min; 72° C. for 10 min.
The amplified rat RUP40 DNA product is of size 403 base pairs. G3PDH amplifiers (Becton Dickinson, Franldin, N.J.) were added to each PCR reaction as an internal control.
With `CNC[C@H](O)c1cccc(O)c1` [PE, phenylephrine], the “RUP40 transcript levels in the myocytes” value is reported as “remain elevated”.

With `CCCCCCCCCCCCCC(=O)O[C@@H]1[C@@H](C)[C@@]2(O)[C@@H](C=C(CO)C[C@]3(O)C(=O)C(C)=C[C@@H]23)[C@@H]2C(C)(C)[C@]12OC(C)=O` [PMA, phorbol 12-myristate 13-acetate], the “RUP40 transcript levels in the myocytes” value is reported as “drop dramatically”.

Regarding prostaglandin F2 alpha [PG], the “RUP40 transcript levels in the myocytes” value is “remain elevated”.
